Test results as given in ChEMBL document CHEMBL1909294, “Translating clinical findings into knowledge in drug safety evaluation--drug induced liver injury prediction system (DILIps)” (PLoS Comput Biol, 2011).

Legend:
Hepatotoxicity [1] = tested on: Hepatotoxicity;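 as to HepSE Combined Scores: combined hepatic side effect score as listed in the training data of the Drug Induced Liver Injury Prediction System (DILIps)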;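 as to HepSE cholecystitis: Cholecystitis-related hepatic side effect score drawn from the DILIps (drug-induced liver injury prediction) training data set; call rule not given here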;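 as to HepSE elevated liver function tests: hepatic side effect score for raised liver function tests, as recorded in the DILIps training set used for predicting drug-induced liver injury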;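 as to HepSE hepatomegaly: hepatic side effect score for hepatomegaly, taken from the training set of the DILIps drug-induced liver injury prediction system; call rule not given here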;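 as to HepSE jaundice: Jaundice-related hepatic side-effect score drawn from the training data of the DILIps (drug-induced liver injury prediction system); call rule not given here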; as to HepSE liver disease: call rule not given here;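 as to HepSE liver fatty: hepatic side effect score for fatty liver, taken from the DILIps training set for predicting drug-induced liver injury; call rule not given here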
Hepatotoxicity [2] = tested on: Hepatotoxicity; remark: listed apart in the source;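 as to HepSE Combined Scores: combined hepatic side effect score as listed in the training data of the Drug Induced Liver Injury Prediction System (DILIps)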;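 as to HepSE cholecystitis: Cholecystitis-related hepatic side effect score drawn from the DILIps (drug-induced liver injury prediction) training data set; call rule not given here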;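 as to HepSE elevated liver function tests: hepatic side effect score for raised liver function tests, as recorded in the DILIps training set used for predicting drug-induced liver injury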;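 as to HepSE jaundice: Jaundice-related hepatic side-effect score drawn from the training data of the DILIps (drug-induced liver injury prediction system); call rule not given here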; as to HepSE liver disease: call rule not given here;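 as to HepSE liver fatty: hepatic side effect score for fatty liver, taken from the DILIps training set for predicting drug-induced liver injury; call rule not given here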
Hepatotoxicity [3] = tested on: Hepatotoxicity; remark: listed apart in the source;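 as to HepSE Combined Scores: combined hepatic side effect score as listed in the training data of the Drug Induced Liver Injury Prediction System (DILIps)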;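 as to HepSE cholecystitis: Cholecystitis-related hepatic side effect score drawn from the DILIps (drug-induced liver injury prediction) training data set; call rule not given here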;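 as to HepSE elevated liver function tests: hepatic side effect score for raised liver function tests, as recorded in the DILIps training set used for predicting drug-induced liver injury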;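 as to HepSE jaundice: Jaundice-related hepatic side-effect score drawn from the training data of the DILIps (drug-induced liver injury prediction system); call rule not given here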; as to HepSE liver disease: call rule not given here;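 as to HepSE liver fatty: hepatic side effect score for fatty liver, taken from the DILIps training set for predicting drug-induced liver injury; call rule not given here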
Hepatotoxicity [4] = tested on: Hepatotoxicity; remark: listed apart in the source;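 as to HepSE Combined Scores: combined hepatic side effect score as listed in the training data of the Drug Induced Liver Injury Prediction System (DILIps)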;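 as to HepSE cholecystitis: Cholecystitis-related hepatic side effect score drawn from the DILIps (drug-induced liver injury prediction) training data set; call rule not given here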;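 as to HepSE elevated liver function tests: hepatic side effect score for raised liver function tests, as recorded in the DILIps training set used for predicting drug-induced liver injury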;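 as to HepSE jaundice: Jaundice-related hepatic side-effect score drawn from the training data of the DILIps (drug-induced liver injury prediction system); call rule not given here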; as to HepSE liver disease: call rule not given here;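 as to HepSE liver fatty: hepatic side effect score for fatty liver, taken from the DILIps training set for predicting drug-induced liver injury; call rule not given here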
Hepatotoxicity [5] = tested on: Hepatotoxicity; remark: listed apart in the source; as to HepSE liver disease: call rule not given here
Hepatotoxicity [6] = tested on: Hepatotoxicity; remark: listed apart in the source; as to HepSE liver disease: call rule not given here
Hepatotoxicity [7] = tested on: Hepatotoxicity; remark: listed apart in the source
Hepatotoxicity [8] = tested on: Hepatotoxicity; remark: listed apart in the source
Hepatotoxicity [9] = tested on: Hepatotoxicity; remark: listed apart in the source
Hepatotoxicity [10] = tested on: Hepatotoxicity; remark: listed apart in the source
Hepatotoxicity [11] = tested on: Hepatotoxicity; remark: listed apart in the source
Hepatotoxicity [12] = tested on: Hepatotoxicity; remark: listed apart in the source
Hepatotoxicity [13] = tested on: Hepatotoxicity; remark: listed apart in the source
Hepatotoxicity [14] = tested on: Hepatotoxicity; remark: listed apart in the source

Compound | HepSE_elevated liver function tests (Hepatotoxicity [1]) | HepSE_Combined Scores (Hepatotoxicity [2]) | HepSE_liver fatty (Hepatotoxicity [3]) | HepSE_liver disease (Hepatotoxicity [4]) | HepSE_jaundice (Hepatotoxicity [5]) | HepSE_cholecystitis (Hepatotoxicity [6]) | HepSE_hepatomegaly (Hepatotoxicity [7]) | HepSE_cirrhosis (Hepatotoxicity [8]) | HepSE_hepatic failure (Hepatotoxicity [9]) | HepSE_bilirubinemia (Hepatotoxicity [10]) | HepSE_cholelithiasis (Hepatotoxicity [11]) | HepSE_liver function tests abnormal (Hepatotoxicity [12]) | HepSE_hepatic necrosis (Hepatotoxicity [13]) | HepSE_hepatitis (Hepatotoxicity [14]) | also measured
CCCCC(C)(O)C/C=C/[C@H]1[C@H](O)CC(=O)[C@@H]1CCCCCCC(=O)OC (stereo partly drawn) [MISOPROSTOL] | 0 | 0 | 0 | 0 | 0 | 0 | 0 | 0 | 0 | 0 | 0 | 0 | 0 | 0 | 
COC(=O)[C@@H]1CC2=CC(=O)CC[C@]2(C)[C@@]23O[C@@H]2C[C@@]2(C)[C@@H](CC[C@@]24CCC(=O)O4)[C@H]13 [EPLERENONE] | 0 | 1 | 0 | 0 | 0 | 0 | 0 | 0 | 1 | 0 | 0 | 0 | 0 | 0 | 
Cc1nnc(SCC2=C(C(=O)O)N3C(=O)[C@@H](NC(=O)Cn4cnnn4)[C@H]3SC2)s1 [CEFAZOLIN] | 0 | 1 | 0 | 0 | 0 | 0 | 0 | 0 | 0 | 0 | 0 | 0 | 0 | 1 | 
C=CC[N+]1([C@H]2C[C@H]3[C@@H]4CC[C@H]5C[C@H](O)[C@@H](N6CCOCC6)C[C@]5(C)[C@H]4CC[C@]3(C)[C@H]2OC(C)=O)CCCC1 [ROCURONIUM] | 0 | 0 | 0 | 0 | 0 | 0 | 0 | 0 | 0 | 0 | 0 | 0 | 0 | 0 | 
CCCCN1CCCCC1C(=O)Nc1c(C)cccc1C (stereo not drawn) [BUPIVACAINE] | 0 | 1 | 0 | 1 | 0 | 0 | 0 | 0 | 0 | 0 | 0 | 0 | 0 | 0 | 
COCCOC(=O)C1=C(C)NC(C)=C(C(=O)OC(C)C)C1c1cccc([N+](=O)[O-])c1 (stereo not drawn) [NIMODIPINE] | 0 | 2 | 0 | 0 | 1 | 0 | 0 | 0 | 0 | 0 | 0 | 0 | 0 | 1 | 
CC(C)(C)NC[C@H](O)COc1nsnc1N1CCOCC1 [TIMOLOL] | 0 | 1 | 0 | 0 | 0 | 0 | 1 | 0 | 0 | 0 | 0 | 0 | 0 | 0 | 
O=P(O)(O)C(O)(Cc1cccnc1)P(=O)(O)O [RISEDRONIC ACID] | 0 | 0 | 0 | 0 | 0 | 0 | 0 | 0 | 0 | 0 | 0 | 0 | 0 | 0 | 
NYSTATIN | 0 | 0 | 0 | 0 | 0 | 0 | 0 | 0 | 0 | 0 | 0 | 0 | 0 | 0 | 
CNS(=O)(=O)CCc1ccc2[nH]cc(C3CCN(C)CC3)c2c1 | 0 | 1 | 0 | 0 | 0 | 0 | 0 | 0 | 0 | 0 | 0 | 1 | 0 | 0 | 
N[C@@H](Cc1cc(I)c(Oc2cc(I)c(O)c(I)c2)c(I)c1)C(=O)O [LEVOTHYROXINE] | 0 | 0 | 0 | 0 | 0 | 0 | 0 | 0 | 0 | 0 | 0 | 0 | 0 | 0 | 
Cc1ccccc1C(OCCN(C)C)c1ccccc1 (stereo not drawn) [ORPHENADRINE] |  | 0 | 0 | 0 | 0 | 0 | 0 | 0 | 0 | 0 | 0 |  | 0 | 0 | HepSE_elevated liver function tests (Hepatotoxicity [1]; Liver): 0; HepSE_liver function tests abnormal (Hepatotoxicity [12]; Liver): 0
CCCN(CCC)CCc1cccc2c1CC(=O)N2 [ROPINIROLE] | 0 | 4 | 0 | 0 | 0 | 1 | 0 | 0 | 0 | 1 | 1 | 0 | 0 | 1 | 
OCC(S)CS (stereo not drawn) [DIMERCAPROL] |  |  |  |  |  |  |  |  |  |  |  |  |  |  | HepSE_elevated liver function tests (Hepatotoxicity [1]; Liver): 0; HepSE_Combined Scores (Hepatotoxicity [2]; Liver): 0; HepSE_liver fatty (Hepatotoxicity [3]; Liver): 0; HepSE_liver disease (Hepatotoxicity [4]; Liver): 0; HepSE_jaundice (Hepatotoxicity [5]; Liver): 0; HepSE_cholecystitis (Hepatotoxicity [6]; Liver): 0; HepSE_hepatomegaly (Hepatotoxicity [7]; Liver): 0; HepSE_cirrhosis (Hepatotoxicity [8]; Liver): 0; HepSE_hepatic failure (Hepatotoxicity [9]; Liver): 0; HepSE_bilirubinemia (Hepatotoxicity [10]; Liver): 0; HepSE_cholelithiasis (Hepatotoxicity [11]; Liver): 0; HepSE_liver function tests abnormal (Hepatotoxicity [12]; Liver): 0; HepSE_hepatic necrosis (Hepatotoxicity [13]; Liver): 0; HepSE_hepatitis (Hepatotoxicity [14]; Liver): 0
Nc1nc2[nH]cc(CCc3ccc(C(=O)N[C@@H](CCC(=O)O)C(=O)O)cc3)c2c(=O)[nH]1 [PEMETREXED] | 0 | 0 | 0 | 0 | 0 | 0 | 0 | 0 | 0 | 0 | 0 | 0 | 0 | 0 | 
C[C@H]1C[C@@H]2[C@H]([C@@H](O)C[C@@]3(C)[C@H]2CC[C@]3(O)C(=O)CO)[C@@]2(C)C=CC(=O)C=C12 [METHYLPREDNISOLONE] | 0 | 0 | 0 | 0 | 0 | 0 | 0 | 0 | 0 | 0 | 0 | 0 | 0 | 0 | 
O=C(NCC1CCCCN1)c1cc(OCC(F)(F)F)ccc1OCC(F)(F)F (stereo not drawn) [FLECAINIDE] | 0 | 2 | 0 | 0 | 1 | 0 | 0 | 0 | 1 | 0 | 0 | 0 | 0 | 0 | 
